Data published in paper PMC10799042 (Scientific Reports, 2024).

How the values were obtained:
[1] = tested on: Reduced glutathione (GSH); assay: Reduced glutathione (GSH) assay in brain homogenate; type: in vivo; conditions: brain THS of mice, scopolamine 1.5 mg/kg i.p.; donepezil and compounds 2 mg/kg p.o.; mean ± SD
Method: (§1) The animals were properly acclimated before being randomly placed into 12 groups (I-XII), with six animals in each group. […] Following the delivery of the dose to the mouse, the rodent's behaviour was assessed using the traditional Morris water maze (MWM) technique.
(§2) After five days of behavioral assessment, the mice's brains were removed and homogenized (blended) in chilled phosphate buffer (pH 7.4) at a concentration of 10% w/v (weight per volume). The homogenates were then centrifuged (spun at high speed) for 20 min at 4 °C to separate the supernatant (liquid) from the pellet (solid material). The supernatant was then collected to measure biological substances.
The method described by Jollow et al. was used to measure glutathione (GSH) levels. First, 1.0 mL of 4% sulfosalicylic acid was added to 1.0 mL of tissue homogenate to precipitate the GSH. The mixture was then incubated at 4 °C for 1 h and centrifuged at 1200 rpm for 10 min at 4 °C. The supernatant was collected and diluted to a final volume of 3.0 mL with phosphate buffer and Ellman's reagent. […]

[2] = tested on: Catalase; assay: Catalase assay in brain homogenate; type: in vivo; conditions: brain THS of mice, scopolamine 1.5 mg/kg i.p.; donepezil and compounds 2 mg/kg p.o.; mean ± SD
Method: as §1, §2
Employing the methodology of Luck et al., catalase activity was quantified. The sample contained H2O2 (1.0 mL, 0.019 M), phosphate buffer (1.95 mL, 0.05 M, pH 7.0), and THS (0.05 mL). The optical density was computed at a wavelength of 240 nm. The findings were shown as μM H2O2 decomposition/min/mg protein[13].

[3] = tested on: malondialdehyde (MDA); assay: Lipid peroxidation (LPO) assay, MDA in brain homogenate; type: in vivo; conditions: brain THS of mice, scopolamine 1.5 mg/kg i.p.; donepezil and compounds 2 mg/kg p.o.; mean ± SD
Method: as §1, §2
The amount of malondialdehyde (MDA), a marker of lipid peroxidation (LPO), was measured using a method described by Wills[10]. Tris–HCl buffer and THS were mixed and incubated at 37 °C for 2 h with 10% trichloroacetic acid. After incubation, the mixture was centrifuged again (at 1000 rpm for 10 min). […] After cooling, 1.0 mL of double-distilled water was added, and the absorbance was measured at 532 nm.

[4] = molecular target: T1, Acetylcholinesterase (AChE) (Mus musculus, UniProt P21836); conditions: brain THS of mice, scopolamine 1.5 mg/kg i.p.; donepezil and compounds 2 mg/kg p.o.; mean ± SD
T1 sequence (P21836 32-614): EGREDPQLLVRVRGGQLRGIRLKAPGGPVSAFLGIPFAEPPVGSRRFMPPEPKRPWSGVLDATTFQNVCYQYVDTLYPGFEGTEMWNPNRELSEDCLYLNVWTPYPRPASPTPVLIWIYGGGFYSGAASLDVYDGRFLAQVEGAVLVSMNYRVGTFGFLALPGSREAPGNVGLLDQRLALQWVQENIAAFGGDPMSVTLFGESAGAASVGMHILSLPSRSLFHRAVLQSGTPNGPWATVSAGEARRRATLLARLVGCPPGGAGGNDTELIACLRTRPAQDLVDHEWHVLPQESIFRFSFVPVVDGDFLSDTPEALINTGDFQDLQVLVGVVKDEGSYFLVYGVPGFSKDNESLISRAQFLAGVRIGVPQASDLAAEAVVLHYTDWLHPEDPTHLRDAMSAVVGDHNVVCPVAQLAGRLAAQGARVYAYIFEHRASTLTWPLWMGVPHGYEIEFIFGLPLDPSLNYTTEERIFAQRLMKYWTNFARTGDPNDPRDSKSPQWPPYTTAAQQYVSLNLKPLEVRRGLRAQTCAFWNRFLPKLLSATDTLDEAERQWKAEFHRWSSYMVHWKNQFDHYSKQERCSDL
Method: as §1, §2
Employing Ellman et al., methodology, AChE levels were quantified in tissue homogenate supernatant (THS) to evaluate cholinergic abnormalities.

[5] = tested on: nitrite; assay: Nitrite assay (Greiss reagent) in brain homogenate; type: in vivo; conditions: brain THS of mice, scopolamine 1.5 mg/kg i.p.; donepezil and compounds 2 mg/kg p.o.; mean ± SD
Method: as §1, §2
The amount of nitric oxide in THS was calculated using Greiss' reagent, a mixture of chemicals that reacts with nitric oxide to produce a colored product. The absorbance of the colored product was computed at 540 nm and the concentration of nitrite was determined using a standard curve of known nitrite concentrations.

[6] = tested on: scopolamine-induced memory impairment and learning disability in mice; assay: Morris water maze, scopolamine-induced memory impairment; type: in vivo, Swiss albino male mice; conditions: for escape latency versus scopolamine-treated mice (in words) / improvement of cognitive defects (in words): 2 mg/kg; for escape latency versus scopolamine-treated mice (in words): day 1 to 5; for Escape latency, 1st Day: day 1; for Escape latency, 2nd Day: day 2; for Escape latency, 3rd Day: day 3; for Escape latency, 4th Day: day 4; for Escape latency, 5th Day: day 5; for improvement of cognitive defects (in words): compared with donepezil 2 mg/kg
Method: Swiss albino male mice weighing 25–30 g were purchased from LLRUVAS in Hisar, Haryana, India. […] The housing, care, and handling of the animals were done per CPCSEA requirements. The animals were exposed to the laboratory setting for seven days before the experiment.
as §1
Five days of continuous animal evaluations were conducted using the MWM model. […] The tank was placed in a dim laboratory, and using wires anchored at the pool's edge at an angle to one another, it was divided into four equal pieces (P1–P4). A stage in the targeted area (P4) of the pool with an upper face (6 × 6 cm^2) immersed in the water (1.0 cm below the surface). The location of the stage stayed the same throughout the evaluation. The animals were subjected to water pools throughout the evaluation by turning their heads towards the wall from any of the four segments, namely P1-P4, and being given 90 s to recognise the stage placed in a pool. If the animal couldn't get to the stage in 90 s, they were gently guided onto the stage under supervision. On the sixth day, one of the parameters used to determine if cognitive impairments have recovered was the time it took the mice to travel from the initial portion to locate the hidden stage in the intended part (escape latency). […]

[7] = tested on: Superoxide dismutase (SOD); assay: Superoxide dismutase (SOD) assay in brain homogenate; type: in vivo; conditions: brain THS of mice, scopolamine 1.5 mg/kg i.p.; donepezil and compounds 2 mg/kg p.o.; mean ± SD
Method: as §1, §2
The samples contained EDTA, sodium carbonate, and NBT, and the assay was performed using Kono's method. Each sample tube contained 2.0 mL of this mixture, as well as THS and hydroxylamine. The absorbance of the mixture was measured at 560 nm every 30 or 60 s for 2 min to track changes in absorbance.

[8] = mice, scopolamine 1.5 mg/kg i.p., donepezil and compounds 2 mg/kg p.o. with scopolamine, mean ± SD

Compound	GSH assay, μmol of GSH/mg Protein [1]	Catalase assay, Catalase activity [2] [min⁻¹]	LPO assay, MDA levels [3]	μM of AChE/min/mg protein [4]	Nitrite assay, nitrite conc. [5] [μM/mg protein]	escape latency versus scopolamine-treated mice (in words) [6]	Escape latency, 1st Day [6, 8] [s]	Escape latency, 2nd Day [6, 8] [s]	Escape latency, 3rd Day [6, 8] [s]	Escape latency, 4th Day [6, 8] [s]	Escape latency, 5th Day [6, 8] [s]	SOD assay, SOD units/mg protein [7] [SOD units/mg protein]	improvement of cognitive defects (in words) [6]	TSTQ (time spent in the target quadrant) ([6]; mice, scopolamine 1.5 mg/kg i.p., donepezil and compounds 2 mg/kg p.o. with scopolamine, probe trial, mean ± SD) [s]
2-(1-benzylpiperidin-4-yl)-4-chloro-6,7-dimethoxyquinoline [Compound 15]	0.09 ± 0.003 μmol of GSH/mg Protein	5.35 ± 0.03	8.54 ± 0.02 nM/mg of tissue	0.02 ± 0.02 μM of AChE/min/mg protein	14.66 ± 0.04	significantly reduced escape latency	80.5 ± 0.86	49.83 ± 0.75	29.16 ± 3.07	11.5 ± 1.04	3.83 ± 1.34	3.14 ± 0.03		
2-(1-benzylpiperidin-4-yl)-6,7-dimethoxy-4-(4-(trifluoromethyl)phenyl)quinoline [Compound 19]	0.09 ± 0.005 μmol of GSH/mg Protein	5.17 ± 0.05	9.25 ± 0.02 nM/mg of tissue	0.01 ± 0.02 μM of AChE/min/mg protein	11.31 ± 0.03	significantly reduced escape latency	54.83 ± 1.47	44.83 ± 2.71	21.33 ± 2.68	13.16 ± 2.31	3.66 ± 0.94	3.09 ± 0.03		
2-(1-benzylpiperidin-4-yl)-6,7-dimethoxy-4-(4-methoxyphenyl)quinoline [Compound 18]	0.11 ± 0.001 μmol of GSH/mg Protein	5.53 ± 0.01	8.52 ± 0.02 nM/mg of tissue	0.01 ± 0.01 μM of AChE/min/mg protein	10.51 ± 0.03	significantly reduced escape latency		44.83 ± 3.125	24.66 ± 1.24	13.83 ± 2.63	3.33 ± 1.37	4.08 ± 0.02	most potent	
2-(2-(1-benzylpiperidin-4-yl)ethyl)-4-chloro-6,7-dimethoxyquinoline [Compound 17]	0.11 ± 0.006 μmol of GSH/mg Protein	4.76 ± 0.02	8.73 ± 0.05 nM/mg of tissue	0.02 ± 0.01 μM of AChE/min/mg protein	12.57 ± 0.05	significantly reduced escape latency	81 ± 0.89	32.83 ± 1.83	22.66 ± 1.79	12.33 ± 2.25	4.16 ± 0.74	3.09 ± 0.02		
2-((1-benzylpiperidin-4-yl)methyl)-4-chloro-6,7-dimethoxyquinoline [Compound 16]	0.11 ± 0.002 μmol of GSH/mg Protein	4.66 ± 0.04	8.52 ± 0.05 nM/mg of tissue	0.01 ± 0.01 μM of AChE/min/mg protein	11.74 ± 0.03	significantly reduced escape latency	76 ± 3.3	30.8 ± 0.75	21 ± 0.81	16 ± 1.54	5.33 ± 1.24	3.07 ± 0.02		
6-chloro-N-(1-(1-(3,4-dimethoxybenzyl)-2-oxopyrrolidin-3-yl)piperidin-4-yl)pyridine-3-sulfonamide [Compound 9]	0.11 ± 0.002 μmol of GSH/mg Protein	6.23 ± 0.02	8.48 ± 0.02 nM/mg of tissue	0.01 ± 0.01 μM of AChE/min/mg protein	10.42 ± 0.04	significantly reduced escape latency	80.5 ± 0.84	40.83 ± 0.98	23.5 ± 2.92	15.83 ± 3.37	2.66 ± 0.68	4.09 ± 0.02	most potent	
CN1[C@@H]2C[C@@H](OC(=O)[C@H](CO)c3ccccc3)C[C@H]1[C@@H]1O[C@@H]12 [Scopolamine, scopolamine, reference compound]							78.65 ± 0.82	80.64 ± 3.91	82.82 ± 3.79	84.15 ± 3.31	86.25 ± 3.31			18.55 ± 0.88
N-(1-benzylpiperidin-4-yl)-2-(2-oxoindolin-3-yl)acetamide [Compound 23]				0.01 ± 0.04 μM of AChE/min/mg protein		significantly reduced escape latency	55.33 ± 1.96	45.16 ± 0.75	35.33 ± 2.56	11.83 ± 1.94	4.16 ± 1.067			
